Experiments:
Assay in all cases: combination Emax (second highest fraction inhibited in the dose matrix, 72 h); higher = more inhibition; extreme values may be limits of the assay
[1] = system: 8305C (Thyroid Gland Carcinoma)
Summary of the method: (§1)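 After 24 hours at 37°C and 5% CO2 in 1536-well plates, cells in DMEM/F12 or RPMI plus 10% FBS received two-drug dose matrices for 72 hours. Viability came from CellTiter-Glo 2.0 luminescence and was scaled as inhibition, anchored at 0 by vehicle wells and at 1 by blank wells. Combination Emax is taken as the second-highest inhibition in the matrix, and Bliss excess as the observed combination effect less EA + EB − EA·EB, with EA and EB the single-agent effects.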

[2] = system: CAL-54 (Kidney Carcinoma)
Summary of the method: as §1

[3] = system: CAPAN-1 (Pancreatic Carcinoma)
Summary of the method: as §1

[4] = system: HDLM-2 (Hodgkin's Lymphoma)
Summary of the method: as §1

HMV-II (Melanoma) = system: HMV-II (Melanoma)
Summary of the method: as §1

[5] = system: HO-1-u-1 (Oral Cavity Carcinoma)
Summary of the method: as §1

[6] = system: K5 (Thyroid Gland Carcinoma)
Summary of the method: as §1

[7] = system: LU-139 (Small Cell Lung Carcinoma)
Summary of the method: as §1

[8] = system: MDA-MB-468 (Breast Carcinoma)
Summary of the method: as §1

Mewo (Melanoma) = system: Mewo (Melanoma)
Summary of the method: as §1

NB14 (Neuroblastoma) = system: NB14 (Neuroblastoma)
Summary of the method: as §1

NCI-H2795 (Mesothelioma) = system: NCI-H2795 (Mesothelioma)
Summary of the method: as §1

NCI-H28 (Mesothelioma) = system: NCI-H28 (Mesothelioma)
Summary of the method: as §1

[9] = system: OC-314 (Ovarian Carcinoma)
Summary of the method: as §1

[10] = system: RKO (Colorectal Carcinoma)
Summary of the method: as §1

[11] = system: RPMI-6666 (Non-Cancerous)
Summary of the method: as §1

SH-4 (Melanoma) = system: SH-4 (Melanoma)
Summary of the method: as §1

[12] = system: SK-OV-3 (Ovarian Carcinoma)
Summary of the method: as §1

[13] = system: SU-DHL-6 (B-Cell Non-Hodgkin's Lymphoma)
Summary of the method: as §1

[14] = system: SW1271 (Small Cell Lung Carcinoma)
Summary of the method: as §1

SMILES | combination Emax [1] | combination Emax [2] | combination Emax [3] | combination Emax [4] | combination Emax (HMV-II (Melanoma)) | combination Emax [5] | combination Emax [6] | combination Emax [7] | combination Emax [8] | combination Emax (Mewo (Melanoma)) | combination Emax (NB14 (Neuroblastoma)) | combination Emax (NCI-H2795 (Mesothelioma)) | combination Emax (NCI-H28 (Mesothelioma)) | combination Emax [9] | combination Emax [10] | combination Emax [11] | combination Emax (SH-4 (Melanoma)) | combination Emax [12] | combination Emax [13] | combination Emax [14]
C[C@@H]1COCCN1c1cc(C2([S@](C)(=N)=O)CC2)nc(-c2ccnc3[nH]ccc23)n1 [AZD6738] + Nc1ccn([C@@H]2O[C@H](CO)[C@@H](O)C2(F)F)c(=O)n1 [Gemcitabine] (first compound max 10 µM, 7x7, partner max 0.3 µM) | 0.721 | 0.819 | 0.684 | 0.77 | 0.724 | 0.926 | 0.778 | 0.841 | 0.767 | 0.768 | 1 | 0.874 | 0.695 | 0.993 | 0.954 | 0.936 | 0.623 | 0.625 | 0.945 | 0.7
O=C(c1cc(Cc2n[nH]c(=O)c3ccccc23)ccc1F)N1CCN(C(=O)C2CC2)CC1 [Olaparib] + Cc1c2c(nn1C)CSCc1cc(n(C)n1)CSc1cc(c3ccccc3c1)OCCCc1c(C(=O)O)n(C)c3c-2c(Cl)ccc13 [AZD5991] (first compound max 10 µM, 7x7, partner max 1 µM) | 0.311 | 0.208 | 0.366 | 0.937 | 0.0925 | 0.239 | 0.0887 | 0.132 | 0.42 | 0.161 | 0.595 | 0.748 | 0.118 | 0.191 | 0.137 | 0.794 | 0.155 | 0.174 | 1 | 0.131
CN(CCO)CC[C@H](CSc1ccccc1)Nc1ccc(S(=O)(=O)NC(=O)c2ccc(N3CCC([C@@H](O)c4ccccc4-c4ccc(Cl)cc4)CC3)cc2)cc1S(=O)(=O)C(F)(F)F [AZD4320] + Nc1ccn([C@@H]2O[C@H](CO)[C@@H](O)C2(F)F)c(=O)n1 [Gemcitabine] (first compound max 1 µM, 7x7, partner max 0.3 µM) | 0.625 | 0.838 | 0.828 | 0.935 | 0.619 | 0.563 | 0.688 | 0.961 | 0.799 | 0.451 | 0.993 | 0.872 | 0.797 | 0.989 | 0.928 | 0.985 | 0.642 | 0.308 | 0.998 | 0.872
C[C@@H](Oc1cc(-c2cnn(C3CCNCC3)c2)cnc1N)c1c(Cl)ccc(F)c1Cl [Crizotinib] + Cn1cnc2c(F)c(Nc3ccc(Br)cc3Cl)c(C(=O)NOCCO)cc21 [Selumetinib] (first compound max 10 µM, 7x7, partner max 10 µM) | 0.801 | 0.565 | 0.571 | 0.193 | 0.934 | 0.639 | 0.682 | 0.684 | 0.673 | 0.541 | 0.966 | 0.918 | 0.438 | 0.494 | 0.982 | 0.672 | 0.91 | 0.249 | 1 | 0.896
Cc1cc2ncnn2cc1Nc1ncc2c(n1)n(C1CCOCC1)c(=O)n2C [AZD7648] + COc1cc([C@@H]2c3cc4c(cc3[C@@H](O[C@@H]3O[C@@H]5CO[C@@H](C)O[C@H]5[C@H](O)[C@H]3O)[C@H]3COC(=O)[C@H]23)OCO4)cc(OC)c1O [Etoposide] (first compound max 10 µM, 7x7, partner max 10 µM) | 0.465 | 0.731 | 0.492 | 0.715 | 0.655 | 0.866 | 0.64 | 0.875 | 0.657 | 0.71 | 0.912 | 0.686 | 0.425 | 0.978 | 0.829 | 0.958 | 0.492 | 0.399 | 0.991 | 0.475

Reference: the supplement of paper PMC11061612
